{"source": "paper PMC9635925", "about": "“Biological screening of a unique drug library targeting MRGPRX2” (Frontiers in Immunology, 2022)", "key": {"[1]": {"target": "T1, MRGPRX2-WT (wild-type MRGPRX2 receptor) (Homo sapiens, UniProt Q96LB1)", "T1 construct": "expressed in transfected cells", "T1 sequence (Q96LB1 1-330)": "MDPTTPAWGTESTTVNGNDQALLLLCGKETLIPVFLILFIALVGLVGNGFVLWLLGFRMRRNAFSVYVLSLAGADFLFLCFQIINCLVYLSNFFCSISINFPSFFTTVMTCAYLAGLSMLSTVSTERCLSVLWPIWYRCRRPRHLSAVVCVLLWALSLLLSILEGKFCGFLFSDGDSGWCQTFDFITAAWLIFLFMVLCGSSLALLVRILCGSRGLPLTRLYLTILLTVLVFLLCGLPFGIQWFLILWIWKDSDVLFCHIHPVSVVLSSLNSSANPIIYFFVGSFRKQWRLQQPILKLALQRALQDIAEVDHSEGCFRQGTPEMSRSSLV", "experiment": "Primary HTS, Ca2+ mobilization (fluorescence ratio, B-score) in HEK293-Gα15 cells stably expressing wild-type MRGPRX2", "assay_type": "cell-based"}, "[2]": {"target": "T2, MRGPRX2-MUT (MRGPRX2 N62S mutation) (Homo sapiens, UniProt Q96LB1, N62S)", "T2 construct": "expressed in transfected cells", "T2 sequence (Q96LB1 1-330 N62S)": "T1 sequence (Q96LB1 1-330) with N62S", "experiment": "Primary HTS, Ca2+ mobilization (fluorescence ratio, B-score) in HEK293-Gα15 cells stably expressing the MRGPRX2 N62S mutation", "assay_type": "cell-based", "settings": "Supplementary Table 2"}, "[3]": {"target": "T3, MRGPRX2 N62S (Homo sapiens, UniProt Q96LB1, N62S)", "T3 construct": "expressed in transfected cells", "T3 sequence (Q96LB1 1-330 N62S)": "T1 sequence (Q96LB1 1-330) with N62S", "experiment": "Calcium response dose-response curves in HEK293-Gα15 cells expressing MRGPRX2 N62S", "assay_type": "cell-based", "settings": "P=0.013, unpaired t-test"}, "[4]": {"target": "T4, MRGPRX2-WT (Homo sapiens, UniProt Q96LB1)", "T4 construct": "expressed in transfected cells", "T4 sequence (Q96LB1 1-330)": "T1 sequence (Q96LB1 1-330)", "experiment": "Calcium response dose-response curves in HEK293-Gα15 cells expressing MRGPRX2-WT", "assay_type": "cell-based"}, "[5]": {"system": "HEK293-Gα15 cells without MRGPRX2", "experiment": "Calcium release in HEK293-Gα15 cells without MRGPRX2 (negative control screening)", "settings": "compared to MRGPRX2-WT or MRGPRX2-N62S cells, data not shown"}, "[6]": {"system": "MRGPRX2", "settings": "weak agonist; cited from earlier work"}}, "note": "Changes are numbered by the printed parent chain. Where a name gives a salt, the structure may show the parent alone."}
{"smiles": "COc1cccc2c1C(=O)c1c(O)c3c(c(O)c1C2=O)C[C@@](O)(C(C)=O)C[C@@H]3O[C@H]1C[C@H](N)[C@H](O)[C@H](C)O1", "note": "[Daunorubicin Hydrochloride]", "values": [{"measurement": "B-scores (WT)", "setting": "[1]; 10 μM compound, Supplementary Table 2", "value": 2.95}, {"measurement": "B-scores (MUT)", "setting": "[2]; 10 μM compound, MRGPRX2-MUT (N62S) cells", "value": 15.19}, {"measurement": "Change of B-scores (%)", "setting": "[2]; MRGPRX2-MUT versus MRGPRX2-WT cells, 10 μM", "value": 414.49, "unit": "%"}, {"measurement": "EC50 values comparing MRGPRX2-MUT to MRGPRX2-WT cells", "setting": "[3]", "value": "demonstrated the LOF property"}]}
{"smiles": "COc1cccc2c1C(=O)c1c(O)c3c(c(O)c1C2=O)C[C@@](O)(C(=O)CO)C[C@@H]3O[C@H]1C[C@H](N)[C@H](O)[C@H](C)O1", "note": "[Doxorubicin Hydrochloride]", "values": [{"measurement": "EC50", "setting": "[4]", "value": 131, "unit": "nM"}]}
{"smiles": "CSCC[C@H](NC(=O)[C@H](CC(C)C)NC(=O)CNC(=O)[C@H](Cc1ccccc1)NC(=O)[C@H](Cc1ccccc1)NC(=O)[C@H](CCC(N)=O)NC(=O)[C@H](CCC(N)=O)NC(=O)[C@@H]1CCCN1C(=O)[C@H](CCCCN)NC(=O)[C@@H]1CCCN1C(=O)[C@@H](N)CCCNC(=N)N)C(N)=O", "note": "[SP, substance P]", "values": [{"measurement": "calcium response in empty HEK293-Gα15 cells", "setting": "[5]", "value": "no increase in calcium response was detected"}]}
{"smiles": "CN[C@H](CC(C)C)C(=O)N[C@H]1C(=O)N[C@@H](CC(N)=O)C(=O)N[C@H]2C(=O)N[C@H]3C(=O)N[C@H](C(=O)N[C@H](C(=O)O)c4cc(O)cc(O)c4-c4cc3ccc4O)[C@H](O)c3ccc(c(Cl)c3)Oc3cc2cc(c3O[C@@H]2O[C@H](CO)[C@@H](O)[C@H](O)[C@H]2O[C@H]2C[C@](C)(N)[C@H](O)[C@H](C)O2)Oc2ccc(cc2Cl)[C@H]1O", "note": "[vancomycin]", "values": [{"measurement": "B-score value", "setting": "[1]; 10 μM", "value": 16.36}, {"measurement": "calculated EC50", "setting": "[6]", "value": 60, "unit": "µg/mL"}]}
